Data taken from patent publication US7425579B2, “Methods for inhibiting activity of polyamine transporters” (Universite Laval, priority 1998, dated 2008).

Key:
[1] = tested on: MDA-MB-231 human breast cancer xenograft; assay: MDA-MB-231 human breast cancer xenograft in nude mice; format: in vivo, immunodeficient CD-1 mice
Experimental: In particular, the mice have been treated with the following compounds: BNSD-X (1% w/v) (●), 0.3 (w/v) DFMO (□), 0.3% DFMO+BNSD-X (▪), 1% (w/v) DFMO (Δ), or 1% DFMO+BNSD-X (▴). Drugs were dissolved in drinking water which was given ad libitum to the animals. Control mice (∘) received distilled water only;
In particular, the mice have been treated with the following compounds: BNSD-X (1% w/v) (●), 0.3 (w/v) DFMO (□), 0.3% DFMO+BNSD-X (▪), 1% (w/v) DFMO (Δ), or 1% DFMO+BNSD-X (▴). Drugs were dissolved in drinking water which was given ad libitum to the animals. Control mice (∘) received distilled water only; and
In particular, these compounds are BNSD-X (1% w/v), 0.3 (w/v) DFMO, 0.3% DFMO+BNSD-X, 1% (w/v) DFMO, or 1% DFMO+BNSD-X Drugs were dissolved in drinking water which was given ad libitum to the animals. Control mice received distilled water only.
For human xenograft experiments, athymic CD-1 mice were inoculated with 5×10^6 MDA-MB-231 human breast cancer cells (grown in tissue culture incubators to mid-exponential phase) in both sides of the inguinal mammary fat pad. After ˜2 weeks, when the tumor had reached a diameter ˜4 mm (as measured with a caliper), control mice were paired to treated ones in accordance with tumor volume (time zero). Animals were allowed free access to water containing 0, 0.3 or 1% DFMO (w/v), plus or minus 1% (w/v) BNSD-X (7 mice/experimental group). Tumor volume (V) was measured twice weekly with a caliper in 2 dimensions using the approximation V=(L×w^2)/2, where L is the length and w is the width of the xenograft (Bandyopadhyay et al., (2002) Cancer Res. 62:4690-4695). Animals were sacrificed after 39 d (i.e. when tumor size in control mice had reached about 500 mm^3). Mammary tumors were be excised and weighed.
The efficacy of BNSD-X as a chemotherapeutic agent was assessed in the MDA-MB-231 model of human breast cancer xenograft in the nude mouse, a model which is known to be sensitive to polyamine depletion by DFMO (Weeks et al., (2000) Exp Cell Res. 261:293-302). For that purpose, MDA-MB-231 cells were injected in the left and right mammary fat pads of immunodeficient CD-1 mice. Mice were then allowed to drink either BNSD-X at the optimal concentration (1%, w/v), as well as DFMO at either 0.3% or 1% (w/v) plus or minus 1% BNSD-X for 39 days before sacrificing the animals and measuring total final tumor mass (FIG. 12-14). The BNSD-X solution alone or with 0.3% DFMO led to a slight (˜7%) reduction of body weight, which was attenuated by the addition of 1% DFMO (FIG. 13) However, this effect of body weight could largely be accounted on the decreased tumor burden in the BNSD-X treated animals (FIG. 14). […]

[2] = tested on: Jurkat, LAN-1, L1210, T-47D, ZR-75-1 and MDA-MB-231 cells; assay: Effect of BNSD-X on cell proliferation in various mammalian cell lines; format: cell-based; settings: 1 mM aminoguanidine; 4 to 11 d
Experimental: FIGS. 3A and 3B are graphs showing the effect compounds used in a method according preferred embodiment of the present invention, on cell proliferation. In particular, they relate to the effect of selected BSD and BNSD derivatives on T-47D cell proliferation. Cells were incubated for 9 d with the indicated concentrations of BSD-2 (∘), BNSD-4 (●), BSD-4 (□), BNSD-6 (▪), BSD-10 (Δ), BSD-4-ene (▴) and BSD-4-yne (▾) in medium containing 1 mM aminoguanidine, and total DNA content per culture was then determined. B, Effect of BNSD-X (N,N,N′,N′-tetrakis-(3-aminopropyl)-p-diaminoxylene) on cell proliferation in various mammalian cell lines. Jurkat (∘), LAN-1 (●), L1210 (□), T-47D (▪), ZR-75-1 (Δ) and MDA-MB-231 (▴) cells were grown to near confluency or saturation (for 4 to 11 d according to the cell line considered) with the indicated concentrations of BNSD-X in the presence of 1 mM aminoguanidine, and total DNA content per culture was then determined. Data are given as the mean±SD for triplicate cultures from one out of at least two identical experiments;
The effect of transport inhibitors on cell proliferation was evaluated by determination of cell number (L1210, Jurkat) using electronic sizing with a Model ZM Coulter counter (Coulter Electronics, Hialeah, Fla.), or DNA content per culture (for all other cell lines) with the 3,5-diaminobenzoic acid assay. […]

NCCCN(CCCN)Cc1ccc(CN(CCCN)CCCN)cc1 [28a, N,N,N′,N′-tetrakis-(3-aminopropyl)-p-diaminoxylene]
reduction of body weight ([1]; 1% (w/v) BNSD-X alone in drinking water): ~7%
decrease of total tumor mass ([1]; 1% (w/v) BNSD-X as a single agent, 39-d treatment): 65±10%
effect on proliferation of a panel of mammalian cell lines [2]: remarkably inert
